From patent US4049795A, “Treatment of hemorrhagic shock” (priority 1974, dated 1977)
Where “and” joins values, the source holds several entries; their conditions need not be identical. Identical values can stand only once.

Assays:
[1] = tested on: rats; assay: Toxicity, oral administration in rats; format: in vivo, rat; details: six rats
[2] = Tolerance, intraperitoneal route, rabbits; details: rabbit, in vivo, ip, single dose, read-out: tolerated single dose
From the text: Rabbits tolerate a single dose of 8 g/kg by the intraperitoneal route.

[3] = tested on: oxygen consumption of the rat; assay: Oxygen consumption in metabolism apparatus for small animals (BARGETON and […]); format: in vivo
From the text: The results obtained are given as percentage of the control tests in the following table I.

[4] = tested on: Rabbit ileum; assay: Isolated rabbit ileum, tonus
Protocol: Fragments of the ileum were suspended in a 75 ml isolated organ tank containing Tyrode's solution maintained at 37° C. by a thermostat and oxygenated by bubbling pure oxygen at a constant rate of flow. The movement of the organ were recorded by means of a lever on a cylinder rotating at a known constant speed.

[5] = tested on: Rabbit atrium; assay: Isolated rabbit atrium
From the text: The technique used for this study was the same as that described above for the ileum of the rabbit, but replacing the ileum with bled rabbit atrium. The preservation liquid used as LOCKE's liquid.

[6] = tested on: isolated segment of aorta; assay: Isolated segment of aorta, tonus
[7] = tested on: response to adrenalin, noradrenalin and serotonin; assay: Response to adrenalin, noradrenalin and serotonin in the dog; format: in vivo; details: in the presence of dihydroxyacetone
[8] = pH of a solution in distilled water; format: physicochemical
[9] = tested on: glucidic metabolism; assay: Glucidic metabolism under intravenous perfusion in rabbits (lactacidemia, pyruvicemia, glycemia); format: in vivo, rabbit
Protocol: These tests were carried out on rabbits weighing an average of 2.500 kg.
A trachetomy was carried out under local anaesthesia with procaine. […] A saphenous vein and the two femoral arteries were catheterized under local anaesthesia in order to register the blood pressure by a manometer and to take blood samples; a jugular vein was catheterized to the base of the skull to sample cerebral venous blood.
The results obtained were compared with those obtained following a perfusion carried out in the same way with sodium d,l-lactate at a dose of 40 mg/kg/min.
The glycemia was measured by the enzymatic method in the arterial and cerebral venus blood. The samples were taken before the perfusion, at the end of the perfusion, and at 30 minutes and 60 minutes after perfusion.

[10] = tested on: Hypercapnic anoxemia; assay: Hypercapnic anoxemia in rabbits; format: in vivo, rabbit
Protocol: (§1) The tests were done on rabbits weighing an average of 2.5 kg. The fastening of the cranial electrodes was done under local anaesthesia with procaine, as was the placing of the catheters in a femoral artery to record the blood pressure. The tracheotomies and tracheal intubations were also done under local anaesthesia using procaine. The temperature was maintained at around 38° C. Three types of anoxemia were investigated; 2. Hypercapnic anoxemia: The above-mentioned artificial ventilation of the animal after curarization was stopped. Stopping of the cerebral electrogenesis was obtained after an average of 120 seconds. 3. Nitrogen anoxemia: The animal was curarized and artifically ventilated as indicated above. Anoxemia was obtained by connecting a nitrogen gasbag to the air intake of the BEAUDOUIN apparatus; general non-hypercapnic anoxemia occurred. Air was […] seconds. […] A latency of 30 minutes was observed before anoxemia was caused.

[11] = tested on: Nitrogen anoxemia; assay: Nitrogen anoxemia in rabbits; format: in vivo, rabbit
Protocol: as §1, with “investigated;” for “investigated; 2. Hypercapnic anoxemia: The above-mentioned artificial ventilation of the animal after curarization was stopped. Stopping of the cerebral electrogenesis was obtained after an average of 120 seconds.”

[12] = tested on: erythrocytic aggregation of the microcirculation (sludge); assay: Erythrocytic aggregation of the microcirculation (sludge), mesenteric circulation of the rabbit; format: in vivo; details: independent of the experimental cause of sludge
Protocol: This phenomenon was observed by using the technique developed by […] and BRUE (Agressologie, Vol. 4, No. 3, p. 299 ff of 1963): it entails a microscopic observation of the mesenteric circulation of the rabbit. […] The hemorrhagic shock was obtained by the […] method. The perfusion of adrenalin was carried out at a dose of 10 mg/kg/min. for 10 to 15 minutes. The perfusion of lactate was effected at a dose of 0.39 g/min for 15 minutes. The perfusion of ethyl alcohol (in a 20% aqueous solution) was carried out at a dose of 20 ml of solution (i.e. 4 ml of absolute alcohol) for 15 minutes.

[13] = tested on: hepatic and renal circulation
[14] = tested on: electro-cardiograms; details: in vivo
[15] = tested on: cerebral lactate edema; details: edema induced by mechanical, biological or pharmacological means; cited from earlier work
[16] = tested on: rats; assay: Toxicity, intraperitoneal injection in rats
[17] = tested on: hemorrhagic shock; assay: Irreversible hemorrhagic shock (WIGGERS) in dogs
[18] = 1 g/kg intravenously, prior perfusion

SMILES: O=C(CO)CO [dihydroxyacetone]
- animals died at oral dose of 80 g/kg [1]: one
- MTD [2]: 8000 mg/kg
- mean decrease (oxygen consumption) ([3]; 2 g / kilogram): 6.5
- Difference between the control measurement and the measurement after injection (oxygen consumption) ([3]; 2 g/kg, individual tests No. 1 to 12): 0 percentage of the control test and -18 percentage of the control test and -16 percentage of the control test and -13 percentage of the control test and -11 percentage of the control test
- mean decrease (oxygen consumption) ([3]; 4 g / kilogram): 4.1
- Difference between the control measurement and the measurement after injection (oxygen consumption) ([3]; 4 g/kg, individual tests No. 1 to 8): -13 percentage of the control test and -10 percentage of the control test
- oxygen consumption of the rat ([3]; overall result in words): decreased the oxygen consumption of the rat
- tonus of ileum ([4]; 50 mg to 75 ml of survival medium): only a slight and transient tonus increase
- tonus of ileum ([4]; dose printed as 18): a momentary hypertonia
- effect of potassium chloride in the presence of dihydroxyacetone ([4]; rabbit ileum): decreases only the contractile amplitude without affecting the tonus
- effect on hypertonia due to acetylcholine ([4]; rabbit ileum, acetylcholine): did not change
- effect on hypertonia caused by adrenalin ([4]; rabbit ileum, adrenalin): clearly decreased
- effect on action of nicotine ([4]; rabbit ileum, nicotine): clearly diminished
- effect on hypertonic activity of serotonin ([4]; rabbit ileum, serotonin): The same observation was made with serotonin
- effect on hypertonic action of sodium lactate ([4]; rabbit ileum, sodium lactate): influenced to only a small degree
- effect on hypertonic activity of reducing agents ([4]; vitamin C or amino-ethyl isothiouronium): disappeared
- amplitude of atrium ([5]; 800 mg per 75 ml of preservation liquid): a slight increase in amplitude
- effect on inhibitory action of sodium lactate added subsequently ([5]; dihydroxyacetone 800 mg per 75 ml, then 600 mg of sodium lactate): a slight opposition to its inhibitory action
- action on the lactate when it was added first ([5]; lactate added first): no action
- chronotropic action ([5]; rabbit atrium): negative chronotropic action
- tonus of an isolated segment of aorta [6]: does not act on the tonus
- response to adrenalin, noradrenalin and serotonin [7]: remained unchanged
- pH of a solution in distilled water [8]: 4
- lactacidemia compared with perfusion of sodium lactate ([9]; 66 mg/kg over 15 minutes): values lower than those obtained after a perfusion of sodium lactate
- lactacidemia at 30 and 60 minutes after the end of perfusion ([9]; 30 and 60 minutes after perfusion): continued to increase at 30 and 60 minutes after the end of perfusion
- glycemia ([9]; after a perfusion): increased considerably
- lactacidemia when perfusion of sodium lactate was followed by perfusion of dihydroxyacetone ([9]; after sodium lactate): a progressive fall in the lactacidemia
- pyruvicemia ([9]; rabbit, intravenous perfusion): increased in parallel with lactacidemia
- recuperation latency, hypercapnic anoxemia ([10]; 1 g/kg intravenously): an improvement which was difficult to measure
- survival time, hypercapnic anoxemia [10, 18]: pronounced
- recuperation time, hypercapnic anoxemia ([10]; 1 g/kg intravenously, result in words): a clear improvement
- recuperation time, hypercapnic anoxemia ([10]; for 2 minutes of anoxemia): ≤ 30 s
- recuperation latency, nitrogen anoxemia ([11]; 1 g/kg intravenously): a slight improvement
- recuperation time, nitrogen anoxemia ([11]; 1 g/kg intravenously): no improvement
- survival time, nitrogen anoxemia [11, 18]: minor
- blood pressure in nitrogen anoxemia ([11]; anoxemia preceded by perfusion of dihydroxyacetone): maintained a high value
- intravascular aggregation (sludge) [12]: caused the intravascular aggregation to disappear
- mesenteric capillary circulation [12]: re-established the mesenteric capilliary circulation
- blood CO2 pressure ([13]; in vivo): stable
- blood pH without neutralisation of the solution ([13]; in vivo): a slight fall in the blood pH
- average pressure and pulse pressure ([13]; intravenous perfusion of 2 g/kg): A slight increase in the average pressure and a widening of the pulse pressure
- hepatic and renal flows ([13]; rapid perfusion, 1 g/kg): variably increased
- hepatic flow ([13]; rapid perfusion, 1 g/kg): nearly doubled
- change in the electro-cardiograms [14]: no change in the electro-cardiograms within standard deviations
- protection against cerebral lactate edema [15]: will protect a rat against cerebral lactate edema
- animals died, repeated injection every 2 hours ([16]; 4.5 g/kg every 2 hours, third group of 5 rats): 3 animals
- maximum non-lethal dose ([16]; intraperitoneal injection, rats): about 7.50 g/kg
- duration of the rise in blood pressure ([17]; 4 to 7 g/kg): maintained for several hours
- arterial and venous CO2 pressures and pH in hemorrhagic shock ([17]; 4 to 7 g/kg over about 3 hours): developed in a similar manner to those existing in the control animals
- glycemia in hemorrhagic shock ([17]; 4 to 7 g/kg over about 3 hours): rose above its initial level
- kalemia in hemorrhagic shock ([17]; 4 to 7 g/kg over about 3 hours): rose above that of the control animals
- lactacidemia in hemorrhagic shock ([17]; 4 to 7 g/kg over about 3 hours): reached values higher than in the control animals
- pyruvicemia in hemorrhagic shock ([17]; 4 to 7 g/kg over about 3 hours): continued to rise
- average difference in blood pressure between end of reinjection of effused blood and after the perfusion ([17]; 4 to 7 g/kg, average): 21.5 mm Hg
- blood pressure elevation or restoration compared with hypertonic glucose ([17]; comparison in words): appears to be more active than hypertonic glucose
- effect on the blood pressure in hemorrhagic shock ([17]; irreversible shock): favorable effect on the blood pressure
